# Assay results as given in PMC9669016, “First-in-human phase Ia study of the PI3Kα inhibitor CYH33 in patients with solid tumors” (Nature Communications, 2022).
# Read-outs that look alike come from different tables or passages of the source.
# Experiment: Clinical pharmacokinetics: plasma CYH33 and I27 by LC/MS/MS
# Type: in vivo, human
# Settings: for AUC(0-t) / Cmax / Tmax / concentration at 0.5 h / concentration at 24 h / concentration at 72 h / concentration at 4 h / concentration at 12 h / concentration at 0 h / AUC(0-inf) / half-life: human, plasma; for AUC(0-inf): read-out: AUC0-∞, mean (CV%)
# Protocol: The PK characteristics of CYH33 and its active metabolite I27 were evaluated after single and multiple dose administrations. PK data were obtained from 37 patients from 7 dose cohorts: 1 mg (n = 1), 5 mg (n = 1), 10 mg (n = 2), 20 mg (n = 6), 30 mg (n = 12), 40 mg (n = 13), and 60 mg (n = 2). Intensive and sparse PK sampling was performed. Prior to initiating a continuous daily treatment cycle, the first 5 patients participated in a single dose PK treatment period with a 7-day washout in order to determine the terminal-phase half-life (t1/2) of CYH33 and its active metabolite I27. Based on the single dose PK data for CYH33 of the first 5 patients at doses of 1, 5, 10 and 20 mg, the PK and metabolic characteristics of CYH33 and I27 were evaluated. Combined with the pre-specified rules in the protocol and deliberation from the SMC, subsequent patients directly entered the continuous dose phase.
# Blood samples for PK evaluation were collected at: (1) during the single dose phase: on day 1 pre-dose and 0.5, 1, 2, 4, 8, 12, 24, 36, 48, and 72 h post-dose; (2) during the continuous dose phase: C1D1/Cycle 1 Day 28 pre-dose, and 0.5, 1, 2, 3, 4, 6, 8, 12, and 24 h post-dose; and C1D8/Day 15 pre-dose. Plasma concentrations of CYH33 and I27 were analyzed using a liquid chromatography-tandem mass spectrometry (LC/MS/MS) assay (Shimadzu Corporation, LC-30AD) with a lower limit of quantification (LLOQ) of 2.585 ng/mL and 1.0 ng/mL for CYH33 and I27, respectively. […] Blood samples for measuring the FBG level were collected within 30 min before dosing on C1D1, C1D15, and on the first day of subsequent treatment cycles.
# [1] = CYH33, Cycle 1 Day 28, 1 mg (n=1)
# [2] = CYH33, Cycle 1 Day 28, 5 mg (n=1)
# [3] = CYH33, Cycle 1 Day 28, 10 mg (n=2)
# [4] = CYH33, Cycle 1 Day 28, 20 mg (n=6)
# [5] = CYH33, Cycle 1 Day 28, 30 mg (n=9)
# [6] = CYH33, Cycle 1 Day 28, 40mg (n=7)
# [7] = CYH33, Cycle 1 Day 28, 60 mg (n=2)
smiles,measurement,setting,value
"COC(=O)Nc1cc(C(F)(F)F)c(-c2nc(N3CCOCC3)c3cc(CN4CCN(S(C)(=O)=O)CC4)cn3n2)cn1 [CYH33, methyl (5-(6-((4-(methylsulfonyl)piperazin-1-yl)methyl)−4-morpholinopyrrolo[2,1-f][1,2,4]triazin-2-yl)−4-(trifluoromethyl)pyridin-2-yl)carbamate]","Cmin, mean",[1],0 ng/mL
same,"Rac_AUC, mean",[1],2.0
same,"Rac_Cmax, mean",[1],1.0
same,"CLss/F, mean",[2],8.6 L/h
same,"Cmin, mean",[2],15.1 ng/mL
same,"Rac_AUC, mean",[2],2.2
same,"Rac_Cmax, mean",[2],2.3
same,"CLss/F, mean",[3],8.2 L/h
same,"Cmin, mean",[3],33.4 ng/mL
same,"Rac_AUC, mean",[3],2.0
same,"Rac_Cmax, mean",[3],1.8
same,"CLss/F, mean",[4],8.1 L/h
same,"Cmin, mean",[4],80.8 ng/mL
same,"Rac_AUC, mean",[4],4.2
same,"Rac_Cmax, mean",[4],3.3
same,"CLss/F, mean",[5],11.0 L/h
same,"Cmin, mean",[5],111.4 ng/mL
same,"Rac_AUC, mean",[5],2.9
same,"Rac_Cmax, mean",[5],1.9
same,"CLss/F, mean",[6],11.8 L/h
same,"Cmin, mean",[6],126.5 ng/mL
same,"Rac_AUC, mean",[6],4.3
same,"Rac_Cmax, mean",[6],3.2
same,"CLss/F, mean",[7],15.9 L/h
same,"Cmin, mean",[7],133.2 ng/mL
same,"Rac_AUC, mean",[7],3.2
same,"Rac_Cmax, mean",[7],2.2
same,average accumulation of exposure (AUC0-24h) at steady state vs Cycle 1 Day 1,daily dosing,around 2.9 fold
same,time to steady state,daily dosing,≤ 8 days
same,AUC(0-t),"oral, 1 mg, CYH33, Cycle 1 Day 1, 1 mg (n = 1), read-out: AUC0-24h, mean (CV%)",26 ng·h/mL
same,Cmax,"oral, 1 mg, CYH33, Cycle 1 Day 1, 1 mg (n = 1), read-out: Cmax, mean (CV%)",4.6 ng/mL
same,Tmax,"oral, 1 mg, CYH33, Cycle 1 Day 1, 1 mg (n = 1), read-out: Tmax, median (min-max)",1 h
same,AUC(0-t),"oral, 1 mg, CYH33, Cycle 1 Day 28, 1 mg (n=1), read-out: AUC0-24h, mean",51.6 ng·h/mL
same,Cmax,"oral, 1 mg, CYH33, Cycle 1 Day 28, 1 mg (n=1), read-out: Cmax, mean",4.8 ng/mL
same,Tmax,"oral, 1 mg, CYH33, Cycle 1 Day 28, 1 mg (n=1), read-out: Tmax, median",4 h
same,AUC(0-t),"oral, 5 mg, CYH33, Cycle 1 Day 1, 5 mg (n = 1), read-out: AUC0-24h, mean (CV%)",266 ng·h/mL
same,Cmax,"oral, 5 mg, CYH33, Cycle 1 Day 1, 5 mg (n = 1), read-out: Cmax, mean (CV%)",24.6 ng/mL
same,Tmax,"oral, 5 mg, CYH33, Cycle 1 Day 1, 5 mg (n = 1), read-out: Tmax, median (min-max)",2 h
same,AUC(0-t),"oral, 5 mg, CYH33, Cycle 1 Day 28, 5 mg (n=1), read-out: AUC0-24h, mean",582 ng·h/mL
same,Cmax,"oral, 5 mg, CYH33, Cycle 1 Day 28, 5 mg (n=1), read-out: Cmax, mean",56.2 ng/mL
same,Tmax,"oral, 5 mg, CYH33, Cycle 1 Day 28, 5 mg (n=1), read-out: Tmax, median",1 h
same,AUC(0-t),"oral, 10 mg, CYH33, Cycle 1 Day 1, 10 mg (n = 2), read-out: AUC0-24h, mean (CV%)",624 ng·h/mL
same,Cmax,"oral, 10 mg, CYH33, Cycle 1 Day 1, 10 mg (n = 2), read-out: Cmax, mean (CV%)",43.1 ng/mL
same,Tmax,"oral, 10 mg, CYH33, Cycle 1 Day 1, 10 mg (n = 2), read-out: Tmax, median (min-max)",4 h
same,AUC(0-t),"oral, 10 mg, CYH33, Cycle 1 Day 28, 10 mg (n=2), read-out: AUC0-24h, mean",1230 ng·h/mL
same,Cmax,"oral, 10 mg, CYH33, Cycle 1 Day 28, 10 mg (n=2), read-out: Cmax, mean",78.9 ng/mL
same,Tmax,"oral, 10 mg, CYH33, Cycle 1 Day 28, 10 mg (n=2), read-out: Tmax, median",3 h
same,AUC(0-t),"oral, 20 mg, CYH33, Cycle 1 Day 1, 20 mg (n = 5), read-out: AUC0-24h, mean (CV%)",763 ng·h/mL
same,Cmax,"oral, 20 mg, CYH33, Cycle 1 Day 1, 20 mg (n = 5), read-out: Cmax, mean (CV%)",56.3 ng/mL
same,Tmax,"oral, 20 mg, CYH33, Cycle 1 Day 1, 20 mg (n = 5), read-out: Tmax, median (min-max)",2 h
same,AUC(0-t),"oral, 20 mg, CYH33, Cycle 1 Day 28, 20 mg (n=6), read-out: AUC0-24h, mean",2630 ng·h/mL
same,Cmax,"oral, 20 mg, CYH33, Cycle 1 Day 28, 20 mg (n=6), read-out: Cmax, mean",154 ng/mL
same,Tmax,"oral, 20 mg, CYH33, Cycle 1 Day 28, 20 mg (n=6), read-out: Tmax, median",3 h
same,AUC(0-t),"oral, 30 mg, CYH33, Cycle 1 Day 1, 30 mg (n = 12), read-out: AUC0-24h, mean (CV%)",1300 ng·h/mL
same,Cmax,"oral, 30 mg, CYH33, Cycle 1 Day 1, 30 mg (n = 12), read-out: Cmax, mean (CV%)",96.5 ng/mL
same,Tmax,"oral, 30 mg, CYH33, Cycle 1 Day 1, 30 mg (n = 12), read-out: Tmax, median (min-max)",3.5 h
same,AUC(0-t),"oral, 30 mg, CYH33, Cycle 1 Day 28, 30 mg (n=9), read-out: AUC0-24h, mean",3530 ng·h/mL
same,Cmax,"oral, 30 mg, CYH33, Cycle 1 Day 28, 30 mg (n=9), read-out: Cmax, mean",187 ng/mL
same,Tmax,"oral, 30 mg, CYH33, Cycle 1 Day 28, 30 mg (n=9), read-out: Tmax, median",3 h
same,AUC(0-t),"oral, 40 mg, CYH33, Cycle 1 Day 1, 40 mg (n = 3), read-out: AUC0-24h, mean (CV%)",1320 ng·h/mL
same,Cmax,"oral, 40 mg, CYH33, Cycle 1 Day 1, 40 mg (n = 3), read-out: Cmax, mean (CV%)",97.9 ng/mL
same,Tmax,"oral, 40 mg, CYH33, Cycle 1 Day 1, 40 mg (n = 3), read-out: Tmax, median (min-max)",2 h
same,AUC(0-t),"oral, 40 mg, CYH33, Cycle 1 Day 28, 40mg (n=7), read-out: AUC0-24h, mean",3940 ng·h/mL
same,Cmax,"oral, 40 mg, CYH33, Cycle 1 Day 28, 40mg (n=7), read-out: Cmax, mean",224 ng/mL
same,Tmax,"oral, 40 mg, CYH33, Cycle 1 Day 28, 40mg (n=7), read-out: Tmax, median",4 h
same,AUC(0-t),"oral, 60 mg, CYH33, Cycle 1 Day 1, 60 mg (n = 4), read-out: AUC0-24h, mean (CV%)",1870 ng·h/mL
same,Cmax,"oral, 60 mg, CYH33, Cycle 1 Day 1, 60 mg (n = 4), read-out: Cmax, mean (CV%)",123 ng/mL
same,Tmax,"oral, 60 mg, CYH33, Cycle 1 Day 1, 60 mg (n = 4), read-out: Tmax, median (min-max)",4 h
same,AUC(0-t),"oral, 60 mg, CYH33, Cycle 1 Day 28, 60 mg (n=2), read-out: AUC0-24h, mean",4010 ng·h/mL
same,Cmax,"oral, 60 mg, CYH33, Cycle 1 Day 28, 60 mg (n=2), read-out: Cmax, mean",220 ng/mL
same,Tmax,"oral, 60 mg, CYH33, Cycle 1 Day 28, 60 mg (n=2), read-out: Tmax, median",2.5 h
same,concentration at 0.5 h,"oral, C1D1, 1 mg",1.9 ng/mL
same,concentration at 24 h,"oral, C1D1, 1 mg",0 ng/mL
same,concentration at 0.5 h,"oral, C1D1, 5 mg",0 ng/mL
same,concentration at 24 h,"oral, C1D1, 5 mg",5.9 ng/mL
same,concentration at 72 h,"oral, C1D1, 5 mg",0 ng/mL
same,concentration at 0.5 h,"oral, C1D1, 10 mg",14 ng/mL
same,concentration at 4 h,"oral, C1D1, 10 mg",43.1 ng/mL
same,concentration at 24 h,"oral, C1D1, 10 mg",17.4 ng/mL
same,concentration at 72 h,"oral, C1D1, 10 mg",3.2 ng/mL
same,concentration at 4 h,"oral, C1D1, 20 mg",43.9 ng/mL
same,concentration at 12 h,"oral, C1D1, 20 mg",29.5 ng/mL
same,concentration at 24 h,"oral, C1D1, 20 mg",22.3 ng/mL
same,concentration at 72 h,"oral, C1D1, 20 mg",7.1 ng/mL
same,concentration at 4 h,"oral, C1D1, 30 mg",81.2 ng/mL
same,concentration at 12 h,"oral, C1D1, 30 mg",49.9 ng/mL
same,concentration at 0.5 h,"oral, C1D1, 40 mg",33.8 ng/mL
same,concentration at 24 h,"oral, C1D1, 40 mg",45.2 ng/mL
same,concentration at 0.5 h,"oral, C1D1, 60 mg",21.9 ng/mL
same,concentration at 24 h,"oral, C1D1, 60 mg",61.4 ng/mL
same,concentration at 0 h,"oral, C1D28, 1 mg",0 ng/mL
same,concentration at 0 h,"oral, C1D28, 5 mg",15.5 ng/mL
same,concentration at 0 h,"oral, C1D28, 10 mg",34.8 ng/mL
same,concentration at 0 h,"oral, C1D28, 20 mg",85.1 ng/mL
same,concentration at 0 h,"oral, C1D28, 30 mg",113 ng/mL
same,concentration at 24 h,"oral, C1D28, 30 mg",124 ng/mL
same,concentration at 0 h,"oral, C1D28, 40 mg",141 ng/mL
same,concentration at 0 h,"oral, C1D28, 60 mg",147 ng/mL
same,AUC(0-inf),"oral, CYH33, Cycle 1 Day 1, 1 mg (n = 1)",36.8 ng·h/mL
same,AUC(0-inf),"oral, CYH33, Cycle 1 Day 1, 5 mg (n = 1)",429 ng·h/mL
same,half-life,"oral, CYH33, Cycle 1 Day 1, 5 mg (n = 1), read-out: t1/2, mean (CV%) (converted)",19.2 h
same,AUC(0-inf),"oral, CYH33, Cycle 1 Day 1, 10 mg (n = 2)",1090 ng·h/mL
same,half-life,"oral, CYH33, Cycle 1 Day 1, 10 mg (n = 2), read-out: t1/2, mean (CV%) (converted)",20.2 h
same,AUC(0-inf),"oral, CYH33, Cycle 1 Day 1, 20 mg (n = 5)",2190 ng·h/mL
same,half-life,"oral, CYH33, Cycle 1 Day 1, 20 mg (n = 5), read-out: t1/2, mean (CV%) (converted)",20.8 h
same,Tmax,"po, dose range 1–60 mg, read-out: median time to maximum plasma concentration (Tmax)",1 to 4 h
same,half-life,"oral CYH33, read-out: t1/2 (converted)",~20 h
